The compounds below were run on UT7/EPO Cell line (assay: Cell Proliferation Assay (UT7/EPO, ViaLight Plus)). Settings: proliferative effect; compounds at 10 uM; UT7/EPO cells starved of EPO overnight; 72 hours at 37° C.; ViaLight Plus kit.
Format: cell-based, human
Protocol: The primary testing for the examplfied compounds was performed in UT7/EPO Cell line. UT7/EPO is human leukemia cell line, obtained from Dr. Norio Komatsu (Blood, Vol 82 (2), pp 456-464, 1993). These cells express endogenous EPO receptor and are dependant upon EPO for growth and proliferation. Briefly, the cells were starved of EPO overnight and plated in 96 or 384 well plates. The compounds were added to the cells at 10 uM concentration. The plates were then incubated at 37° C. for 72 hours. The proliferative effect of the compounds was measured by a commercially available kit from Lonza (ViaLight Plus).

Going from O=C(Nc1ccc2c(cnn2-c2ccc(NC(=O)c3cccs3)cc2)c1)c1ccc(N2CCCC(CO)C2)cc1 (racemic) [Compound 520, (±)-N-(4-(5-(4-(3-Hydroxymethyl)piperidin-1-yl)benzamido)-1H-indazol-1-yl)phenyl)thiophene-2-carboxamide] to O=C(Nc1ccc(C(=O)c2ccc(NC(=O)c3ccc[nH]3)cc2)cc1)c1ccc(N2CCCC(CO)C2)cc1 (racemic) [Compound 700, (±)-N-(4-(4-(4-(3-(Hydroxymethyl)piperidin-1-yl)benzamido)benzoyl)phenyl)-1H-pyrrole-2-carboxamide], the “Activity (%)” value rises from 13% to 14%.

Going from CN(C)c1ccc(C(=O)N/N=C/c2cccc(/C=N/NC(=O)c3ccc(N(C)C)cc3)c2)cc1 [Compound 103, (N′,N′″E,N′,N′″E)-N′,N′″-(1,3-phenylenebis(methanylylidene))bis(4-(dimethylamino)benzohydrazide)] to COc1ccc(/C=N/NC(=O)c2ccc(N(C)C)cc2)cc1/C=N/NC(=O)c1ccc(N(C)C)cc1 [Compound 106, (N′,N′″E,N′,N′″E)-N′,N′″-((4-methoxy-1,3-phenylene)bis(methanylylidene))bis(4-(dimethylamino)benzohydrazide)], the “Activity (%)” value falls from 16% to 14%.

First: CN(C)c1ccc(C(=O)N/N=C/c2cc(/C=N/NC(=O)c3ccc(N(C)C)cc3)cc(OCc3ccccc3)c2)cc1 [Compound 107, (N′,N′″E,N′,N′″E)-N′,N′″-((5-(benzyloxy)-1,3-phenylene)bis(methanylylidene))bis(4-(dimethylamino)benzohydrazide)]
Second: CN(C)c1ccc(C(=O)N/N=C/c2cc(/C=N/NC(=O)c3ccc(N(C)C)cc3)cc(COCc3ccccc3)c2)cc1 [Compound 128, (N′,N′″E,N′,N′″E)-N′,N′″-((5-((benzyloxy)methyl)-1,3-phenylene)bis(methanylylidene))bis(4-(dimethylamino)benzohydrazide)]
The “Activity (%)” value of the first is lower: 17% for the first, 20% for the second.

Going from C=CCOc1cc(/C=N/NC(=O)c2ccc(N(C)C)cc2)cc(/C=N/NC(=O)c2ccc(N(C)C)cc2)c1 [Compound 113, (N′,N′″E,N′,N′″E)-N′,N′″-((5-(allyloxy)-1,3-phenylene)bis(methanylylidene))bis(4-(dimethylamino)benzohydrazide)] to CN(C)c1ccc(C(=O)N/N=C/c2cc(/C=N/NC(=O)c3ccc(N(C)C)cc3)cc(NCCO)c2)cc1 [Compound 135, (N′,N′″E,N′,N′″E)-N′,N′″-((5-((2-hydroxyethyl)amino)-1,3-phenylene)bis(methanylylidene))bis(4-(dimethylamino)benzohydrazide)], the “Activity (%)” value falls from 17% to 16%.

Going from O=C(N/N=C/c1cccc(/C=N/NC(=O)c2ccc(N(CC(F)(F)F)CC(F)(F)F)cc2)c1)c1ccc(N(CC(F)(F)F)CC(F)(F)F)cc1 [Compound 115, (N′,N′″E,N′,N′″E)-N′,N′″-(1,3-phenylenebis(methanylylidene))bis(4-(bis(2,2,2-trifluoroethyl)amino)benzohydrazide)] to Cn1ccc2cc(C(=O)N/N=C/c3cccc(/C=N/NC(=O)c4ccc5c(ccn5C)c4)c3)ccc21 [Compound 125, (N′,N′″E,N′,N′″E)-N′,N′″-(1,3-phenylenebis(methanylylidene))bis(1-methyl-1H-indole-5-carbohydrazide)], the “Activity (%)” value falls from 22% to 15%.

COc1cccc(/C=N/NC(=O)c2ccc(C(=O)NCCC(=O)NCCO)cc2)c1 [Compound 141, (E)-N-(3-((2-hydroxyethyl)amino)-3-oxopropyl)-4-(2-(3-methoxybenzylidene)hydrazinecarbonyl)benzamide] and COc1cccc(/C=N/NC(=O)c2ccc(C(=O)NCCC(=O)NCCCCO)cc2)c1 [Compound 165, (E)-N-(3-((4-hydroxybutyl)amino)-3-oxopropyl)-4-(2-(3-methoxybenzylidene)hydrazinecarbonyl)benzamide] are the same in “Activity (%)” value: 19% for the first, 19% for the second.

First: COc1cc(/C=N/NC(=O)c2ccc(C(=O)NCCC(=O)NCCO)cc2)ccc1O [Compound 146, (E)-4-(2-(4-hydroxy-3-methoxybenzylidene)hydrazinecarbonyl)-N-(3-((2-hydroxyethyl)amino)-3-oxopropyl)benzamide]
Second: CN(C)c1cccc(/C=N/NC(=O)c2ccc(C(=O)NCCC(=O)NCCO)cc2)c1 [Compound 149, (E)-4-(2-(3-(dimethylamino)benzylidene)hydrazinecarbonyl)-N-(3-((2-hydroxyethyl)amino)-3-oxopropyl)benzamide]
The “Activity (%)” value of the first is lower: 19% for the first, 22% for the second.

Going from CN(C)c1cccc(/C=N/NC(=O)c2ccc(NCCCC(=O)NCCO)cc2)c1 [Compound 151, (E)-4-((4-(2-(3-(dimethylamino)benzylidene)hydrazinecarbonyl)phenyl)amino)-N-(2-hydroxyethyl)butanamide] to COc1cccc(/C=N/NC(=O)c2ccc3c(ccn3CCCC(=O)Nc3cccc(N(C)C)c3)c2)c1 [Compound 156, (E)-N-(3-(dimethylamino)phenyl)-4-(5-(2-(3-methoxybenzylidene)hydrazinecarbonyl)-1H-indol-1-yl)butanamide], the “Activity (%)” value rises from 20% to 21%.

First: COCCNC(=O)CCCn1ccc2cc(C(=O)N/N=C/c3cccc(-n4cccn4)c3)ccc21 [Compound 160, (E)-4-(5-(2-(3-(1H-pyrazol-1-yl)benzylidene)hydrazinecarbonyl)-1H-indol-1-yl)-N-(2-methoxyethyl)butanamide]
Second: CN(CCO)c1ccc(C(=O)Nc2ccc3[nH]c(-c4ccc(C(=O)NC5CC5)cc4)nc3c2)cc1 [Compound 235, N-cyclopropyl-4-(5-(4-((2-hydroxyethyl)(methyl)amino)benzamido)-1H-benzo[d]imidazol-2-yl)benzamide]
The “Activity (%)” value of the first is higher: 22% for the first, 15% for the second.

Compared with O=C(Nc1ccc2[nH]c(-c3ccccc3)nc2c1)c1ccc(-c2ccccc2)cc1 [Compound 172, N-(2-Phenyl-1H-benzo[d]imidazol-5-yl)-[1,1′-biphenyl]-4-carboxamide], CN(C)c1ccc(NC(=O)c2ccc(-c3nc4cc(NC(=O)c5ccccc5)ccc4[nH]3)cc2)cc1 [Compound 191, 4-(5-benzamido-1H-benzo[d]imidazol-2-yl)-N-(4-(dimethylamino)phenyl)benzamide] is higher in “Activity (%)” value: 12% for the first, 18% for the second.

Going from COc1ccc(C(=O)Nc2ccc3[nH]c(-c4ccc(N5CCCC5)cc4)nc3c2)cc1 [Compound 177, 4-Methoxy-N-(2-(4-(pyrrolidin-1-yl)phenyl)-1H-benzo[d]imidazol-5-yl)benzamide] to NNC(=O)c1ccc(-c2nc3cc(NC(=O)c4ccc(N5CCCC5)cc4)ccc3[nH]2)cc1 [Compound 230, N-(2-(4-(hydrazinecarbonyl)phenyl)-1H-benzo[d]imidazol-5-yl)-4-(pyrrolidin-1-yl)benzamide], the “Activity (%)” value rises from 15% to 21%.

Going from CN(C)c1ccc(C(=O)Nc2ccc3[nH]c(-c4ccc5c(c4)OCCN5C)nc3c2)cc1 [Compound 181, 4-(Dimethylamino)-N-(2-(4-methyl-3,4-dihydro-2H-benzo[b][1,4]oxazin-7-yl)-1H-benzo[d]imidazol-5-yl)benzamide] to CN(C)c1ccc(C(=O)Nc2ccc3[nH]c(-c4ccc5nonc5c4)nc3c2)cc1 [Compound 186, N-(2-(benzo[c][1,2,5]oxadiazol-5-yl)-1H-benzo[d]imidazol-5-yl)-4-(dimethylamino)benzamide], the “Activity (%)” value falls from 20% to 15%.

Compared with CN(C)c1ccc(NC(=O)c2ccc(-c3nc4cc(C(=O)Nc5ccc(N(C)C)cc5)ccc4[nH]3)cc2)cc1 [Compound 197, N-(4-(dimethylamino)phenyl)-2-(4-((4-(dimethylamino)phenyl)carbamoyl)phenyl)-1H-benzo[d]imidazole-5-carboxamide], CN(C)c1ccc(C(=O)Nc2ccc3[nH]c(-c4ccc(-c5ccc(N(C)C)cc5)cc4)nc3c2)cc1 [Compound 220, 4-(dimethylamino)-N-(2-(4′-(dimethylamino)-[1,1′-biphenyl]-4-yl)-1H-benzo[d]imidazol-5-yl)benzamide] is lower in “Activity (%)” value: 20% for the first, 19% for the second.

First: CN(C)c1ccc(C(=O)Nc2ccc3[nH]c(-c4ccc(-c5nn[nH]n5)cc4)nc3c2)cc1 [Compound 202, N-(2-(4-(2H-tetrazol-5-yl)phenyl)-1H-benzo[d]imidazol-5-yl)-4-(dimethylamino)benzamide]
Second: CN(C)c1ccc(C(=O)Nc2ccc3[nH]c(-c4ccc(N(C)C)cc4)nc3c2)cc1 [Compound 206, 4-(dimethylamino)-N-(2-(4-(dimethylamino)phenyl)-1H-benzo[d]imidazol-5-yl)benzamide]
The “Activity (%)” value of the first is lower: 17% for the first, 18% for the second.

First: COc1ccc(-c2nc3cc(NC(=O)c4cccs4)ccc3[nH]2)cc1 [Compound 210, N-(2-(4-methoxyphenyl)-1H-benzo[d]imidazol-5-yl)thiophene-2-carboxamide]
Second: O=C(Nc1ccc2[nH]c(-c3ccc(N4CCCC4)cc3)nc2c1)c1ccc(N2CCCC2)cc1 [Compound 225, 4-(pyrrolidin-1-yl)-N-(2-(4-(pyrrolidin-1-yl)phenyl)-1H-benzo[d]imidazol-5-yl)benzamide]
The “Activity (%)” value of the first is lower: 17% for the first, 20% for the second.

Compared with O=C(Nc1ccccc1)c1ccc(-c2nc3cc(NC(=O)c4ccc(N5CCCCC5)cc4)ccc3[nH]2)cc1 [Compound 215, N-phenyl-4-(5-(4-(piperidin-1-yl)benzamido)-1H-benzo[d]imidazol-2-yl)benzamide], O=C(Nc1ccc(N2CCNCC2)cc1)c1ccc(-c2nc3cc(NC(=O)c4ccc(N5CCNCC5)cc4)ccc3[nH]2)cc1 [Compound 251, 4-(piperazin-1-yl)-N-(2-(4-((4-(piperazin-1-yl)phenyl)carbamoyl)phenyl)-1H-benzo[d]imidazol-5-yl)benzamide] is lower in “Activity (%)” value: 16% for the first, 14% for the second.

In the case of O=C(Nc1ccc2[nH]c(-c3ccc(C(=O)NC4CC4)cc3)nc2c1)c1ccc(N2CCC(O)C2)cc1 (stereo not drawn) [Compound 240, N-cyclopropyl-4-(5-(4-(3-hydroxypyrrolidin-1-yl)benzamido)-1H-benzo[d]imidazol-2-yl)benzamide], the “Activity (%)” value is reported as 15%.
